This note sets out measurements from patent US20240317866A1, “Use of Anti-EGFR/Anti-Met Antibody to Treat Gastric or Esophageal Cancer” (Janssen Biotech, Inc., priority 2022, published 2024).

Common to all, as to format: in vivo, BALB/c nude mice
The subject of one assay is GA0152 gastric PDX. The assay is described as follows: Gastric PDX model GA0152, tumor growth inhibition. Conditions: amivantamab 10 mg/kg i.p. BIW, 5-FU 10 mg/kg i.p. QD 5 days/week, cisplatin 4 mg/kg i.p. QW, paclitaxel 15 mg/kg i.v. QW, vs isotype control. Here is the method:
(§1) Tumor fragments from stock tumor bearing mice were harvested and inoculated into BALB/c nude mice. Each mouse was inoculated subcutaneously in the right flank with indicated tumor fragments (2-3 mm in diameter) for tumor development.
(§2) After establishment of palpable lesions, the tumor growth was measured twice weekly. Once the mean tumor volume reached approximate 150 mm^3, animals were randomly allocated to relevant study groups with 8 mice per group. The randomization was performed according to the tumor size of each group, and the day of randomization was denoted as Day0. The treatments were started on the same day of randomization according to the dosing regimen in Table 18 where appropriate.
(§3) The study endpoints were to compare the tumor growth in each group at the end of treatments, and the subsequent tumor outgrowth after dosing stopped. The tumor size was measured twice weekly in two dimensions using a caliper, and the tumor volume was expressed in mm3 using the formula V=0.5×L×W^2, where V was tumor volume, L was tumor length (longest tumor dimension) and W was tumor width (longest tumor dimension perpendicular to L).
(§4) Tumor growth inhibition (TGI %) was an indication of anti-tumor activities, and calculated as TGI %=(1−(T−T0)/(C−C0))×100%, T and C were the mean tumor volume (TV) of treated and control groups, respectively on the day when mean TV of control group were terminated per study design.

A further assay deals with GA0075 gastric PDX. Description: Gastric PDX model GA0075, tumor growth inhibition. Conditions: amivantamab 10 mg/kg i.p. BIW, 5-FU 10 mg/kg i.p. QD 5 days/week, cisplatin 4 mg/kg i.p. QW, paclitaxel 15 mg/kg i.v. QW, vs isotype control, Day28. The method, then: as §1, §2, §3, §4
The next assay has as its system GA3121 gastric PDX. The assay is described as follows: Gastric PDX model GA3121, tumor growth inhibition. Conditions: amivantamab 10 mg/kg i.p. BIW, paclitaxel 10 mg/kg i.v. QW, vs isotype control. Here is the method: as §1, §2
The study endpoints were to compare the tumor growth in each group at the end of treatments, and the subsequent tumor outgrowth after dosing stopped. The tumor size was measured twice weekly in two dimensions using a caliper, and the tumor volume was expressed in mm3 using the formula V=0.5×L×W^2, where V was tumor volume, L was tumor length (longest tumor dimension) and W was tumor width (longest tumor dimension perpendicular to L). […]

For another assay, the system named is GA0046 gastric PDX. Description: Gastric PDX model GA0046, tumor growth inhibition.

In the case of `CC(=O)O[C@H]1C(=O)[C@@]2(C)[C@H]([C@H](OC(=O)c3ccccc3)[C@]3(O)C[C@H](OC(=O)[C@H](O)[C@@H](NC(=O)c4ccccc4)c4ccccc4)C(C)=C1C3(C)C)[C@]1(OC(C)=O)CO[C@@H]1C[C@@H]2O` [paclitaxel, reference compound], the TGI% with GA0152 gastric PDX is reported as 27.29%; in the assay on GA0152 gastric PDX (listed as paxlitaxel), 27.29%; in the assay on GA0075 gastric PDX it was 66.09%; in the assay on GA3121 gastric PDX, −12.99%.
In the case of `CNC(=O)c1ccc(-c2cnc3ncc(Cc4ccc5ncccc5c4)n3n2)cc1F` [capmatinib, reference compound], the “effect on tumor growth (in words)” value with GA0046 gastric PDX (amivantamab 10 mg/kg BIW single agent, capmatinib 10 mg/kg BID) is “no effect on tumor growth”. For the same compound, the TGI% in the assay with GA0046 gastric PDX (amivantamab 10 mg/kg i.p. BIW, capmatinib 10 mg/kg p.o. BID, vs isotype control, Day28) was 5.93%.
